Earlier results as cited in article PMC9128007 (ACS Pharmacology & Translational Science, 2022).

Tested on: panel of seven proteases including selected cysteine (3), serine (3), and aspartyl (1) proteases

SMILES: CC(C)(C)[C@H](NC(=O)C(F)(F)F)C(=O)N1C[C@H]2[C@@H]([C@H]1C(=O)N[C@H](C#N)C[C@@H]1CCNC1=O)C2(C)C [Nirmatrelvir]
- activity in a panel of seven proteases: lack of activity
